Assay [1] has as its system BJ. The experiment in a line: BJ-TERT fibroblast viability loss – cell-based, RAS-independent, luminescence, dose response (AID 1933). The format is functional. To be noted: Homo sapiens.
In assay [2] the test system is BJ. The assay can be described thus: cells. To be noted: Homo sapiens. The format is functional, cell-based.
Assay [3] concerns the target T1, Serine/threonine-protein phosphatase (Candida dubliniensis (strain CD36 / CBS 7987 / NCPF 3949 / NRRLY-17841) (Yeast), UniProt B9W6M3).
T1 sequence (B9W6M3 whole entry): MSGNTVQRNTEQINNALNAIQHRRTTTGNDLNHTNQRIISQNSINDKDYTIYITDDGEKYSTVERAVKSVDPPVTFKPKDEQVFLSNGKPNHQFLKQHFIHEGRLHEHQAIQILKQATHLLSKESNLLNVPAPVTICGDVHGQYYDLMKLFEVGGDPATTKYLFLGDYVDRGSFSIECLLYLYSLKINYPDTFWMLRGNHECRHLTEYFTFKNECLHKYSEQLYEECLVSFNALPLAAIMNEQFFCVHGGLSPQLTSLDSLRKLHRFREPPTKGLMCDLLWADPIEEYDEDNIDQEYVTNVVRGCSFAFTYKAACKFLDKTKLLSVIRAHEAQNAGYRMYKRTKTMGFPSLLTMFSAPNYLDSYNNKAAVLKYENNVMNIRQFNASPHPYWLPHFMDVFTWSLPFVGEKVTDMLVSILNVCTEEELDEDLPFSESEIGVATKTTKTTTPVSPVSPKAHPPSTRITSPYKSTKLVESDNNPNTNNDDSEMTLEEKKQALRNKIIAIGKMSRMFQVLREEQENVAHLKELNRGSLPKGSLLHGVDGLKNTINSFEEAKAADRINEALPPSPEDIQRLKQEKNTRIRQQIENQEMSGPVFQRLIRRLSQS
The experiment in a line: blockers of CaCl2-induced CDRE-lacZ signaling – S. cerevisiae, luminescence, secondary, dose response (AID 2388).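 Note: yeast reporter cells carrying a calcineurin-responsive lacZ construct stimulated with calcium chloride; luminescent beta-galactosidase reporter signal in whole cells rather than isolated phosphatase activity; potency for inhibition where a drop in reporter signal means calcineurin blockade.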 The format is functional, cell-based.

A further assay deals with Nonstructural protein 1 (Influenza A virus, UniProt Q194T2). The format is functional, Influenza A virus (A/California/07/2009(H1N1)).
Sequence of Nonstructural protein 1 (Q194T2 whole entry): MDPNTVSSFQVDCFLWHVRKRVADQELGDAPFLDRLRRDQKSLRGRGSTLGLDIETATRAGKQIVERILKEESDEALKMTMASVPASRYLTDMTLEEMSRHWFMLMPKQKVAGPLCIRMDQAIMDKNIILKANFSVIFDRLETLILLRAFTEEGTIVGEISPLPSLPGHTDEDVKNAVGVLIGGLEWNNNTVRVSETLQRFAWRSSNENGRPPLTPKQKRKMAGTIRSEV
In a further assay the test system is HEK293. The experiment in a line: HEK293T cell viability loss, resazurin readout – resazurin fluorescence, cytotoxicity control for NF-kB activator project, SAR follow-up (AID 493251). The format is functional, cell-based. Particulars: Homo sapiens.
Assay [4] deals with BJ. The experiment in a line: growth inhibition of engineered Ras-driven BJ cells – cell-based, alamar blue fluorescence, cherrypicked samples, dose response (AID 2631).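 Note: confirmatory dose-response assay in RAS-dependent BJ fibroblasts engineered with TERT, LT and ST, with cytotoxicity read by fluorescence.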 To be noted: Homo sapiens. The format is functional.
A short description of assay [5]: reduction of Shn3 3'UTR-driven luciferase in osteoblasts – cell-based, Clone20 osteoblasts, firefly luciferase, cherry-picked, dose response (AID 624132).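 Note: firefly luciferase luminescence from reporter carrying the Shn3 3'UTR in osteoblasts.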 The format is functional.
Assay [6] in a line: loss of viability in HepG2 cells – cell-based, CellTiter-Glo, cherry-picked, cytotoxicity control for Shn3 inhibitor project, dose response (AID 624134). The format is functional.
Assay [7] concerns the target T2, Sentrin-specific protease 7 (Homo sapiens, UniProt Q9BQF6).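 Note: Luminescence-based dose-response confirmation of ultra-high-throughput screening hits, measuring inhibition of SENP7.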
T2 sequence (Q9BQF6 whole entry): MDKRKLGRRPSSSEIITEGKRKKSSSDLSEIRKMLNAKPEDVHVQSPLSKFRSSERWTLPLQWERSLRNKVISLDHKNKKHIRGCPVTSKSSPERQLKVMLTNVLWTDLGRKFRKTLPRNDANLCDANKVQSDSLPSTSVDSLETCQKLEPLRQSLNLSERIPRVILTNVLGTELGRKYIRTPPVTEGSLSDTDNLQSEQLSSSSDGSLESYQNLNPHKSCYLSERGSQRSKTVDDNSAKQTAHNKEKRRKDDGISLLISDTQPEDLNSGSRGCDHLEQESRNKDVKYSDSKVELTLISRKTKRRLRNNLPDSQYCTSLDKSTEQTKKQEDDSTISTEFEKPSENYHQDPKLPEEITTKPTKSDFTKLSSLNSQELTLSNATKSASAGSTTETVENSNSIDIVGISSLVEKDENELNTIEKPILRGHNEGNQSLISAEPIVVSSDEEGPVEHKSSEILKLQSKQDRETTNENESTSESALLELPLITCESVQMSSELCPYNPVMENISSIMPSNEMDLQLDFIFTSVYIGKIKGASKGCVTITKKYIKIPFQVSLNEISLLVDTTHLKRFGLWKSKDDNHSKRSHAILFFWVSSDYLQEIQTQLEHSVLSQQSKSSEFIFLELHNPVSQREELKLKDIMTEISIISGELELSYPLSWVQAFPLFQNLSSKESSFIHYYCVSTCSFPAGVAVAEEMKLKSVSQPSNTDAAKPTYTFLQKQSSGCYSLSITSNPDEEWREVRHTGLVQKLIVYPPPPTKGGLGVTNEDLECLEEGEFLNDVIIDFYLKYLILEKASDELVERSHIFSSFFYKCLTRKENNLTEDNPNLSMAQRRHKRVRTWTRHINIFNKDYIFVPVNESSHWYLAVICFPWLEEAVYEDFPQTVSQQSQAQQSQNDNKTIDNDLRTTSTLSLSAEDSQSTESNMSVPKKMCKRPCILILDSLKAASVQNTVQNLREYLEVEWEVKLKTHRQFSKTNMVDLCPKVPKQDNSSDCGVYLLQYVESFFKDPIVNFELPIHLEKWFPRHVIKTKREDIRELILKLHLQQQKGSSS
The format is functional.

The source made the active and inactive calls. A value given as a limit tells only on which side of the number the result lay.

For `CCCCC(=O)NC(c1ccc(N(C)C)cc1)c1ccc2cccnc2c1O` (centres undefined), the EC50 in the assay on BJ [1] is 1.05 µM (active); in the assay with BJ [2], 3.12 µM (active); in [3], > 180 µM (inactive); in the assay on BJ [4] it was 0.465 µM (active). Further, the IC50 on Nonstructural protein 1 is 24.9 µM (active); in the assay with HEK293 it was 41.2 µM (inactive). For the same compound, the AC50 in [5] is 0.98 µM (active); in assay [6], 2.47 µM (active).

`CN(CC(=O)Nc1ccccc1Cl)C(=O)COC(=O)c1ccc([N+](=O)[O-])s1`: the IC50 in [7] was 8.73 µM (active).

Values taken from ChEMBL document CHEMBL1201862, “PubChem BioAssay data set” (2004).
